The values below come from US20250171438A1 (Agios Pharmaceuticals, Inc., priority 2022, published 2025).

This assay has as its target T1, human PAH with the R408W mutation (Homo sapiens, UniProt P00439, R408W).
T1 construct: expressed in transfected cells
T1 sequence (P00439 1-452 R408W): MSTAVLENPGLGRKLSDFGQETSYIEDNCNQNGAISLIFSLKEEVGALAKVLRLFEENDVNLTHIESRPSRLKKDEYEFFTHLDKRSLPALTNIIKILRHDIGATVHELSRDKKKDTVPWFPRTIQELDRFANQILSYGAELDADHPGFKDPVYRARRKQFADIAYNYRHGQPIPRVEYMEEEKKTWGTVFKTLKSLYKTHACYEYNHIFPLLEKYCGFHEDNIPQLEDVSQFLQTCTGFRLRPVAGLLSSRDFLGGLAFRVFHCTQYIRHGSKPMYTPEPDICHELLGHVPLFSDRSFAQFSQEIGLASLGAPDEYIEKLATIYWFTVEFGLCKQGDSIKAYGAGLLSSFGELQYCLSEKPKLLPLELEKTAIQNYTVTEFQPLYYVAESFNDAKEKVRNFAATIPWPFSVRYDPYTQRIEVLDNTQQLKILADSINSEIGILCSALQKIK
In words: Cell Based Phenylalanine Flux Assay. The following applies: A375 cells expressing human R408W PAH; 24 hrs compound incubation; 13C-Tyrosine by LC-MS; average where tested multiple times; read-out: AC50.

Method: Compounds were resuspended in DMSO, and 2-fold serial dilutions were performed to generate a 10-point dose curve. Compounds were added to plated cells in a total volume of 100 pal, and a final DMSO concentration of 0.5%. Each compound was tested in duplicate. Following compound addition, cells were placed in a 5% CO2, 37° C. tissue culture incubator for 24 hrs. After the incubation period, 20 μM sepiapterin and 800 μM 13C9,15N-Phenylalanine were added. After 4 hours, cell media was removed. An aliquot of 10 μl of cell media was combined with 200 μl of extraction buffer (80% acetonitrile/20% H2O) for each well. Determination of ^13C-Tyrosine concentration was assessed by liquid chromatography mass spectrometry.
Where a compound was tested multiple times, the average value of the tests is reported.

Turning to `O=C(c1conc1C(F)(F)F)N1CCc2[nH]cnc2[C@@H]1c1nc2c(F)cccc2s1` [Example 1636, (R)-(4-(4-fluorobenzo[d]thiazol-2-yl)-6,7-dihydro-1H-imidazo[4,5-c]pyridin-5(4H)-yl)(3-(trifluoromethyl)isoxazol-4-yl)methanone], the AC50 – broadly, the midpoint of the concentration-response curve, whichever way the signal moves – lay within 500 to 1000 nM.

On to `O=C(c1oc(C2(O)CCC2)nc1C(F)(F)F)N1CCc2[nH]cnc2[C@H]1c1nc2c(F)cccc2s1` [Example 1637, (S)-(4-(4-fluorobenzo[d]thiazol-2-yl)-6,7-dihydro-1H-imidazo[4,5-c]pyridin-5(4H)-yl)(2-(1-hydroxycyclobutyl)-4-(trifluoromethyl)oxazol-5-yl)methanone], for which the AC50 was less than 500 nM.

Consider `O=C(c1oc(C2(O)CCC2)nc1C(F)(F)F)N1CCc2[nH]cnc2[C@@H]1c1nc2c(F)cccc2s1` [Example 1638, (R)-(4-(4-fluorobenzo[d]thiazol-2-yl)-6,7-dihydro-1H-imidazo[4,5-c]pyridin-5(4H)-yl)(2-(1-hydroxycyclobutyl)-4-(trifluoromethyl)oxazol-5-yl)methanone], for which the AC50 is less than 500 nM.

On to `O=C(c1scnc1Cl)N1CCc2[nH]cnc2[C@@H]1c1nc2c(F)cccc2s1` [Example 1639, (R)-(4-chlorothiazol-5-yl)(4-(4-fluorobenzo[d]thiazol-2-yl)-6,7-dihydro-1H-imidazo[4,5-c]pyridin-5(4H)-yl)methanone], for which the AC50 lay within 1000 to 5000 nM.

On to `O=C(c1scnc1Cl)N1CCc2[nH]cnc2[C@H]1c1nc2c(F)cccc2s1` [Example 1640], for which the AC50 fell in the range of 500 to 1000 nM.

In the case of `CN(C)CCn1cc(C(=O)N2CCc3[nH]cnc3[C@H]2c2nc3c(F)cccc3s2)c(C(F)(F)F)n1` [Example 1641], the AC50 was less than 500 nM.

For the compound `CN(C)CCn1cc(C(=O)N2CCc3[nH]cnc3[C@@H]2c2nc3c(F)cccc3s2)c(C(F)(F)F)n1` [Example 1642, (R)-(1-(2-(dimethylamino)ethyl)-3-(trifluoromethyl)-1H-pyrazol-4-yl)(4-(4-fluorobenzo[d]thiazol-2-yl)-6,7-dihydro-1H-imidazo[4,5-c]pyridin-5(4H)-yl)methanone], the AC50 lay within 500 to 1000 nM.

For the compound `Cn1cc(C(=O)N2CCc3[nH]cnc3[C@@H]2c2nc3c(F)cccc3s2)c(Cl)n1` [Example 1643, (R)-(3-chloro-1-methyl-1H-pyrazol-4-yl)(4-(4-fluorobenzo[d]thiazol-2-yl)-6,7-dihydro-1H-imidazo[4,5-c]pyridin-5(4H)-yl)methanone], the AC50 lay in the range of 1000 to 5000 nM.

`Cn1cc(C(=O)N2CCc3[nH]cnc3[C@H]2c2nc3c(F)cccc3s2)c(Cl)n1` [Example 1644]: the AC50 is less than 500 nM.

Turning to `O=C([C@@H]1CC1(F)F)N1CCc2[nH]cnc2[C@H]1c1nc2c(F)cccc2s1` [Example 1645], the AC50 lay within 500 to 1000 nM.

For the compound `O=C([C@@H]1CC1(F)F)N1CCc2[nH]cnc2[C@@H]1c1nc2c(F)cccc2s1` [Example 1646, ((S)-2,2-difluorocyclopropyl)((R)-4-(4-fluorobenzo[d]thiazol-2-yl)-6,7-dihydro-1H-imidazo[4,5-c]pyridin-5(4H)-yl)methanone], the AC50 was in the range of 1000 to 5000 nM.

Take `O=C(CC1(O)CCC1)N1CCc2[nH]cnc2[C@H]1c1nc2c(F)cccc2s1` [Example 1647, (S)-1-(4-(4-fluorobenzo[d]thiazol-2-yl)-6,7-dihydro-1H-imidazo[4,5-c]pyridin-5(4H)-yl)-2-(1-hydroxycyclobutyl)ethanone]: the AC50 is 500 to 1000 nM.

On to `O=C(CC1(O)CCC1)N1CCc2[nH]cnc2[C@@H]1c1nc2c(F)cccc2s1` [Example 1648, (R)-1-(4-(4-fluorobenzo[d]thiazol-2-yl)-6,7-dihydro-1H-imidazo[4,5-c]pyridin-5(4H)-yl)-2-(1-hydroxycyclobutyl)ethanone], for which the AC50 is 1000 to 5000 nM.

On to `O=C(CC1CC(F)C1)N1CCc2[nH]cnc2[C@H]1c1nc2c(F)cccc2s1` (stereo partly drawn) [Example 1649, (S)-1-(4-(4-fluorobenzo[d]thiazol-2-yl)-6,7-dihydro-1H-imidazo[4,5-c]pyridin-5(4H)-yl)-2-(3-fluorocyclobutyl)ethanone], for which the half-maximal activity concentration (AC50) was less than 500 nM.

On to `O=C(CC1CC(F)C1)N1CCc2[nH]cnc2[C@@H]1c1nc2c(F)cccc2s1` (stereo partly drawn) [Example 1650, (R)-1-(4-(4-fluorobenzo[d]thiazol-2-yl)-6,7-dihydro-1H-imidazo[4,5-c]pyridin-5(4H)-yl)-2-(3-fluorocyclobutyl)ethanone], for which the concentration at half-maximal activity (AC50) is 1000 to 5000 nM.

Turning to `N#Cc1nc(N2CCC(F)CC2)oc1C(=O)N1CCc2[nH]cnc2[C@H]1c1nc2ccccc2s1` [Example 1651, (S)-5-(4-(benzo[d]thiazol-2-yl)-4,5,6,7-tetrahydro-1H-imidazo[4,5-c]pyridine-5-carbonyl)-2-(4-fluoropiperidin-1-yl)oxazole-4-carbonitrile], the AC50 lay within 500 to 1000 nM.

`N#Cc1nc(N2CCC(F)CC2)oc1C(=O)N1CCc2[nH]cnc2[C@@H]1c1nc2ccccc2s1` [Example 1652, (R)-5-(4-(benzo[d]thiazol-2-yl)-4,5,6,7-tetrahydro-1H-imidazo[4,5-c]pyridine-5-carbonyl)-2-(4-fluoropiperidin-1-yl)oxazole-4-carbonitrile]: the concentration at half-maximal activity (AC50) was greater than 5000 nM.

Consider `O=C(c1cnc(-c2ccccn2)o1)N1CC2(CC2)c2[nH]cnc2[C@H]1c1nc2ccccc2s1` [Example 1653, (S)-(4′-(benzo[d]thiazol-2-yl)spiro[cyclopropane-1,7′-imidazo[4,5-c]pyridin]-5′(1′H,4′H,6′H)-yl)(2-(pyridin-2-yl)oxazol-5-yl)methanone], for which the AC50 was 500 to 1000 nM.

For `O=C(c1cnc(-c2ccccn2)o1)N1CC2(CC2)c2[nH]cnc2[C@@H]1c1nc2ccccc2s1` [Example 1654, (R)-(4′-(benzo[d]thiazol-2-yl)spiro[cyclopropane-1,7′-imidazo[4,5-c]pyridin]-5′(1′H,4′H,6′H)-yl)(2-(pyridin-2-yl)oxazol-5-yl)methanone], the AC50 was in the range of 1000 to 5000 nM.

Take `O=C(N1CCc2[nH]cnc2[C@H]1c1nc2c(F)cccc2s1)C(F)(F)C1(O)CCC1` [Example 1655, (S)-2,2-difluoro-1-(4-(4-fluorobenzo[d]thiazol-2-yl)-6,7-dihydro-1H-imidazo[4,5-c]pyridin-5(4H)-yl)-2-(1-hydroxycyclobutyl)ethanone]: the AC50 lay in the range of 500 to 1000 nM.

Regarding `O=C(N1CCc2[nH]cnc2[C@@H]1c1nc2c(F)cccc2s1)C(F)(F)C1(O)CCC1` [Example 1656, (R)-2,2-difluoro-1-(4-(4-fluorobenzo[d]thiazol-2-yl)-6,7-dihydro-1H-imidazo[4,5-c]pyridin-5(4H)-yl)-2-(1-hydroxycyclobutyl)ethanone], the AC50 fell in the range of 1000 to 5000 nM.

`O=C(CC1(O)CCC1)N1CCc2[nH]cnc2[C@H]1c1nc2ccccc2s1` [Example 1657]: the AC50 was less than 500 nM.

For `O=C(CC1(O)CCC1)N1CCc2[nH]cnc2[C@@H]1c1nc2ccccc2s1` [Example 1658, (R)-1-(4-(benzo[d]thiazol-2-yl)-6,7-dihydro-1H-imidazo[4,5-c]pyridin-5(4H)-yl)-2-(1-hydroxycyclobutyl)ethanone], the AC50 was 500 to 1000 nM.

For the compound `Cc1nc(CCN(C)C)oc1C(=O)N1CCc2[nH]cnc2[C@H]1c1nc2ccccc2s1` [Example 1659], the AC50 was in the range of 1000 to 5000 nM.

Consider `Cc1nc(CCN(C)C)oc1C(=O)N1CCc2[nH]cnc2[C@@H]1c1nc2ccccc2s1` [Example 1660, (R)-(4-(benzo[d]thiazol-2-yl)-6,7-dihydro-1H-imidazo[4,5-c]pyridin-5(4H)-yl)(2-(2-(dimethylamino)ethyl)-4-methyloxazol-5-yl)methanone], for which the AC50 is greater than 5000 nM.

Regarding `N#Cc1ncoc1C(=O)N1CCc2[nH]cnc2[C@H]1c1nc2c(F)cccc2s1` [Example 1661, (S)-5-(4-(4-fluorobenzo[d]thiazol-2-yl)-4,5,6,7-tetrahydro-1H-imidazo[4,5-c]pyridine-5-carbonyl)oxazole-4-carbonitrile], the AC50 lay within 500 to 1000 nM.

For the compound `N#Cc1ncoc1C(=O)N1CCc2[nH]cnc2[C@@H]1c1nc2c(F)cccc2s1` [Example 1662, (R)-5-(4-(4-fluorobenzo[d]thiazol-2-yl)-4,5,6,7-tetrahydro-1H-imidazo[4,5-c]pyridine-5-carbonyl)oxazole-4-carbonitrile], the half-maximal activity concentration (AC50) was in the range of 1000 to 5000 nM.

Take `N#Cc1ncoc1C(=O)N1CC2(CC2)c2[nH]cnc2[C@@H]1c1nc2ccccc2s1` [Example 1663, (R)-5-(4′-(benzo[d]thiazol-2-yl)-1′,4′,5′,6′-tetrahydrospiro[cyclopropane-1,7′-imidazo[4,5-c]pyridin]-5′-ylcarbonyl)oxazole-4-carbonitrile]: the AC50 is greater than 5000 nM.

Consider `N#Cc1ncoc1C(=O)N1CC2(CC2)c2[nH]cnc2[C@H]1c1nc2ccccc2s1` [Example 1664, (S)-5-(4′-(benzo[d]thiazol-2-yl)-1′,4′,5′,6′-tetrahydrospiro[cyclopropane-1,7′-imidazo[4,5-c]pyridin]-5′-ylcarbonyl)oxazole-4-carbonitrile], for which the AC50 lay within 1000 to 5000 nM.

As to `O=C(c1oc(CCN2CC(F)C2)nc1C(F)(F)F)N1CCc2[nH]cnc2[C@H]1c1nc2c(F)cccc2s1` [Example 1665], the AC50 was less than 500 nM.

Turning to `O=C(c1oc(CCN2CC(F)C2)nc1C(F)(F)F)N1CCc2[nH]cnc2[C@@H]1c1nc2c(F)cccc2s1` [Example 1666, (R)-(2-(2-(3-fluoroazetidin-1-yl)ethyl)-4-(trifluoromethyl)oxazol-5-yl)(4-(4-fluorobenzo[d]thiazol-2-yl)-6,7-dihydro-1H-imidazo[4,5-c]pyridin-5(4H)-yl)methanone], the AC50 was less than 500 nM.
